Consider 13 compounds from ChEMBL document CHEMBL1154600, “Knowledge-based characterization of similarity relationships in the human protein-tyrosine phosphatase family for rational inhibitor design” (J Med Chem, 2009).

Experiment [1] has as its target T1, Receptor-type tyrosine-protein phosphatase C (Homo sapiens, UniProt P08575).
T1 sequence (P08575 whole entry): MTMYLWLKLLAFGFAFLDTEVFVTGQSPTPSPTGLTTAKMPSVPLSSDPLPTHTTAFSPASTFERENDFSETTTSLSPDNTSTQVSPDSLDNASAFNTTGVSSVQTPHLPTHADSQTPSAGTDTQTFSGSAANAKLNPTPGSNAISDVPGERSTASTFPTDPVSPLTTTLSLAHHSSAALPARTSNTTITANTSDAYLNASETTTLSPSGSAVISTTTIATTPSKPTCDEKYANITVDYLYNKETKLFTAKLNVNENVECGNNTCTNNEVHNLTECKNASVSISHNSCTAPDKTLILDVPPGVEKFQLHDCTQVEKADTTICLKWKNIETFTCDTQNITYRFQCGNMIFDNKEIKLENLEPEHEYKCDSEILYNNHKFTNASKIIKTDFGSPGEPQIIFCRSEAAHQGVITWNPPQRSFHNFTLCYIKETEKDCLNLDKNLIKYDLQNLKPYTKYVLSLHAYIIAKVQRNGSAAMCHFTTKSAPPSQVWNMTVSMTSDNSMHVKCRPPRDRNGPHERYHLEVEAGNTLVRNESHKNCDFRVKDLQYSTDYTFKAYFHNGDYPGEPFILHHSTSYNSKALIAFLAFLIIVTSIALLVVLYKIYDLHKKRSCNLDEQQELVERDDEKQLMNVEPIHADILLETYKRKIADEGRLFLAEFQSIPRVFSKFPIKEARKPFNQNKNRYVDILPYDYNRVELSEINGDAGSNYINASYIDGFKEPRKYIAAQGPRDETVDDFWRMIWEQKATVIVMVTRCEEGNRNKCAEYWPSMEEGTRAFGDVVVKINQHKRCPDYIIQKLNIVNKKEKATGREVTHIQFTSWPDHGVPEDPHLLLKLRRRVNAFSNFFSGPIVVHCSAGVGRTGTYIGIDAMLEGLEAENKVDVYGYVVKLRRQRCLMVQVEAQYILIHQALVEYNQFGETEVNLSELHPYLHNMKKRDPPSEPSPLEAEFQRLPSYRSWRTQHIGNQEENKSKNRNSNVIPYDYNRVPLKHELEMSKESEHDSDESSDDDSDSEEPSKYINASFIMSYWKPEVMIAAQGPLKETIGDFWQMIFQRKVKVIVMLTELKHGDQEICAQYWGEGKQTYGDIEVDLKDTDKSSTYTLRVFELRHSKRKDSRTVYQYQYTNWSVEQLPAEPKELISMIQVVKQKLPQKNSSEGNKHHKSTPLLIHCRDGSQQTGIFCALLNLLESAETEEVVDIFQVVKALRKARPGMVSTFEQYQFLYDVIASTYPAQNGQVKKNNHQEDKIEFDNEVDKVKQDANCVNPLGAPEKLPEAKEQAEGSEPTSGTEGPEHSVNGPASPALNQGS
As to the kind of experiment: Inhibition of PTPRC.

For experiment [2], the target named is Receptor-type tyrosine-protein phosphatase beta (Homo sapiens, UniProt P23467). As to the kind of experiment: Inhibition of PTPRB.
The target in experiment [3] is Tyrosine-protein phosphatase non-receptor type 6 (Homo sapiens, UniProt P29350).
For experiment [4], the target named is Receptor-type tyrosine-protein phosphatase epsilon (Homo sapiens, UniProt P23469).
Experiment [5] has as its target T2, Tyrosine-protein phosphatase non-receptor type 2 (Homo sapiens, UniProt P17706).
T2 sequence (P17706 whole entry): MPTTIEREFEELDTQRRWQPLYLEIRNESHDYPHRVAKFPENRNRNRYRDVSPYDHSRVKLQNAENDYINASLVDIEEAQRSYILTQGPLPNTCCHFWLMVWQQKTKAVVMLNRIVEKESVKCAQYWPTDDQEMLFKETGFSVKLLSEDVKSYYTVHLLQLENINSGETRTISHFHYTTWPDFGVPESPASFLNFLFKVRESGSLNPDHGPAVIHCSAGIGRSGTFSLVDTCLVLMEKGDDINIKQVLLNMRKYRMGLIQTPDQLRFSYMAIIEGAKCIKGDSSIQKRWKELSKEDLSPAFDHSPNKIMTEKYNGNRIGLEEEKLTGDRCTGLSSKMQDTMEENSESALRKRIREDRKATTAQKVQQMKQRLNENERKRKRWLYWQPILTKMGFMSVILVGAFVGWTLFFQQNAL

The target of experiment [6] is Receptor-type tyrosine-protein phosphatase F (Homo sapiens, UniProt P10586). Description: Inhibition of PTPRF.
Experiment [7] concerns the target Receptor-type tyrosine-protein phosphatase alpha (Homo sapiens, UniProt P18433). As to the kind of experiment: Inhibition of PTPRA.
For experiment [8], the target named is Tyrosine-protein phosphatase non-receptor type 2 (Homo sapiens) (UniProt P17706). Description: Inhibition of PTPN2.

Where only a bound is given, the exact number is not on record here.

Chain of Receptor-type tyrosine-protein phosphatase alpha (P18433 whole entry): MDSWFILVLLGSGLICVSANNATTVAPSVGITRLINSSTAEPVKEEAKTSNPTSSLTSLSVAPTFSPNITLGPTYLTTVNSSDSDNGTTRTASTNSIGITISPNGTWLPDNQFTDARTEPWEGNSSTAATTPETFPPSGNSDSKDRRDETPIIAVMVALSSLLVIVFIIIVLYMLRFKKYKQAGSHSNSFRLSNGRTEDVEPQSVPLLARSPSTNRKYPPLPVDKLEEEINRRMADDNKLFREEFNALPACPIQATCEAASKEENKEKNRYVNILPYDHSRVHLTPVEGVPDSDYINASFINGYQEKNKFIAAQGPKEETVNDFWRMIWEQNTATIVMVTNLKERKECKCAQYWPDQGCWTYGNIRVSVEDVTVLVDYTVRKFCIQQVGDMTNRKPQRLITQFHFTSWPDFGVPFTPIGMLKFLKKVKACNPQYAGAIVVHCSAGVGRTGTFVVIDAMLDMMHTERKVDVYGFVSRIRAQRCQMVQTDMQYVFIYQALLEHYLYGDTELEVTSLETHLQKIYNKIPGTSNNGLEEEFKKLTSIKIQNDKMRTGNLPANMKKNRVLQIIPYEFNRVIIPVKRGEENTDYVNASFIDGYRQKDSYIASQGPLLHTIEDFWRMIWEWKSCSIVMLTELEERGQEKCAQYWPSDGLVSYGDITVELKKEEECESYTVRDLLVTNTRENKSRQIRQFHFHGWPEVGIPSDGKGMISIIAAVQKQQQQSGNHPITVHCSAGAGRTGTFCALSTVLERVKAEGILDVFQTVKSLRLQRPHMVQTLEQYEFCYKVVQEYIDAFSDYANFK
Chain of Tyrosine-protein phosphatase non-receptor type 6 (P29350 whole entry): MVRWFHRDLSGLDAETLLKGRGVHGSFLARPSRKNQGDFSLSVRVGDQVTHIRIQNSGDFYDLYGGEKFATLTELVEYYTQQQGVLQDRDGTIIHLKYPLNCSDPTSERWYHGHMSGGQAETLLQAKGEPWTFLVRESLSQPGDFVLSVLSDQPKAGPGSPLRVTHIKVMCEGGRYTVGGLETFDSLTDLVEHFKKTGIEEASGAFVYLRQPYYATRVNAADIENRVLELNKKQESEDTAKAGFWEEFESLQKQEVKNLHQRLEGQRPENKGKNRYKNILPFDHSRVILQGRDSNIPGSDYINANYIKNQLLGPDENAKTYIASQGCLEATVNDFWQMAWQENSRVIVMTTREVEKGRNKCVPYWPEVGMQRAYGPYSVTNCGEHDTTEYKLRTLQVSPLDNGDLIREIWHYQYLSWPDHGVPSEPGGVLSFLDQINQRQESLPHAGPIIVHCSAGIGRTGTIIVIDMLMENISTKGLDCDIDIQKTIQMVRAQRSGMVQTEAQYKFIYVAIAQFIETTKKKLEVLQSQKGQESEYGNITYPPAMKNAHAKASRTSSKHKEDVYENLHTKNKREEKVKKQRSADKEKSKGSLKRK
Chain of Receptor-type tyrosine-protein phosphatase F (P10586 whole entry): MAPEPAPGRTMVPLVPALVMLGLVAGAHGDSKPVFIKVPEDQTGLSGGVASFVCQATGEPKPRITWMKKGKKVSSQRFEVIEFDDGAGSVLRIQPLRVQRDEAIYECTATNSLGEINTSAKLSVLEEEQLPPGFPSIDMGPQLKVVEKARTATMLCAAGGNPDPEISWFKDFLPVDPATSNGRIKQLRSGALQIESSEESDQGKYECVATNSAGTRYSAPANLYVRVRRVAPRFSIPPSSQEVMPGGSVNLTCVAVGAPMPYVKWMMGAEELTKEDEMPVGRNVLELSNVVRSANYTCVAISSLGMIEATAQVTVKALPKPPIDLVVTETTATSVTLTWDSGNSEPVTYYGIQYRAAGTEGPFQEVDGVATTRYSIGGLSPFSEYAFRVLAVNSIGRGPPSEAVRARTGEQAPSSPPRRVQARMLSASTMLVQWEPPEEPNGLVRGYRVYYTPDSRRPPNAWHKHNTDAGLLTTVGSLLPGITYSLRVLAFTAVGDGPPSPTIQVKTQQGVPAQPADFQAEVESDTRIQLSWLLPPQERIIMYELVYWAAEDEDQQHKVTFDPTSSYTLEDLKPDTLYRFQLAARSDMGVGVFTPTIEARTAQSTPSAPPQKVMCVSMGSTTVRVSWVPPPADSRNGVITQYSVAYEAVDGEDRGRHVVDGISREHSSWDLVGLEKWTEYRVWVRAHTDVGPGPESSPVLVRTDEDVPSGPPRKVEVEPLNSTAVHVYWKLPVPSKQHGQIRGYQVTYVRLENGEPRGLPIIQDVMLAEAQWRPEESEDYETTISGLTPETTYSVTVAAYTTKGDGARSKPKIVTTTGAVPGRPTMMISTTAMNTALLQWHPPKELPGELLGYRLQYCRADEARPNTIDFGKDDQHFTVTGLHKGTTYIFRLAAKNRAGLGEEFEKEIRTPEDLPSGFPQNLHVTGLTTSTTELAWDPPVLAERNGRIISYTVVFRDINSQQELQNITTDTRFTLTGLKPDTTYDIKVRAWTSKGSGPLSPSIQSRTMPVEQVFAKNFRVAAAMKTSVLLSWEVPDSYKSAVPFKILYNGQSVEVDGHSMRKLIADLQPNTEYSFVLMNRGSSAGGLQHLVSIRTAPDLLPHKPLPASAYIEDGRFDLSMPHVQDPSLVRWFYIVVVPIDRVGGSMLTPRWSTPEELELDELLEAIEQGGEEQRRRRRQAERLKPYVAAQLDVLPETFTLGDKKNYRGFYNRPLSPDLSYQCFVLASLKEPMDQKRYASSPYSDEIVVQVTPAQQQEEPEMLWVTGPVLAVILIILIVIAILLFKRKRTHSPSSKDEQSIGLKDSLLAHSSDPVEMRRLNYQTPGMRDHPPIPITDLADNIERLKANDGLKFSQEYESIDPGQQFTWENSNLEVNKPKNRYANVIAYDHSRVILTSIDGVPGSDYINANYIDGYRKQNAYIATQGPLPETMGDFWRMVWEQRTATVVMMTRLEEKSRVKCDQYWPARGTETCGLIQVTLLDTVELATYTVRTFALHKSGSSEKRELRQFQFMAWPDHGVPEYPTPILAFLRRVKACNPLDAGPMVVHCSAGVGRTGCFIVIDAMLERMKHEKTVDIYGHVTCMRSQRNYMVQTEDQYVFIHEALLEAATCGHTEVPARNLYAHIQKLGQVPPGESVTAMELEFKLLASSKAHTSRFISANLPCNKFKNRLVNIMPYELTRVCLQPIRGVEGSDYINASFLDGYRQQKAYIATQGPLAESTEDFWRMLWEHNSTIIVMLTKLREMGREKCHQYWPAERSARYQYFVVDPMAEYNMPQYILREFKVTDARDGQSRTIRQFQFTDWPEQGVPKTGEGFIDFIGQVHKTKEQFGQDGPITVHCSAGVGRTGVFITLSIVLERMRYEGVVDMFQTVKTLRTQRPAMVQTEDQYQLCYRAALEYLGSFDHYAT
Chain of Receptor-type tyrosine-protein phosphatase epsilon (P23469 whole entry): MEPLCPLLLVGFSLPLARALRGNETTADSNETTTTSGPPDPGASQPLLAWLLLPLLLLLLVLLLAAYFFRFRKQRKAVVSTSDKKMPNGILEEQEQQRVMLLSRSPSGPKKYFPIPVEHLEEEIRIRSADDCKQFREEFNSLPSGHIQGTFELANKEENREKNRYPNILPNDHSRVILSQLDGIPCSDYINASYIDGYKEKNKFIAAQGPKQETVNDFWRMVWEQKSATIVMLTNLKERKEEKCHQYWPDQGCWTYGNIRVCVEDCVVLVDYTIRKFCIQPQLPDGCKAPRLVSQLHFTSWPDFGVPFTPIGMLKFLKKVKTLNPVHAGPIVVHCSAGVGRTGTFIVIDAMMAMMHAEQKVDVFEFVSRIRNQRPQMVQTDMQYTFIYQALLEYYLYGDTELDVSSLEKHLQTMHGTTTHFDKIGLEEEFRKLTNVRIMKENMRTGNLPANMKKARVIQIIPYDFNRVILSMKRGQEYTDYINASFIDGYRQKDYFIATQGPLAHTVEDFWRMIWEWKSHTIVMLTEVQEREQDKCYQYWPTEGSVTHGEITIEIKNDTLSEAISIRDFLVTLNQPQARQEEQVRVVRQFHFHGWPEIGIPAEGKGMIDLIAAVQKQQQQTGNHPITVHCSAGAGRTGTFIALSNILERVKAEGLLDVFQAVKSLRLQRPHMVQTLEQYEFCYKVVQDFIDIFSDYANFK

As for `O=C(O)C(=O)Nc1sc2c(c1C(=O)O)CCCC2`, the results for the Ki in experiment [1], in experiment [2] and in experiment [3] were 41 µM, 19 µM and 100 µM, respectively.
As for `O=C(O)C(=O)Nc1ccccc1C(=O)O`, the figures for the Ki in experiment [2], in experiment [3] and in experiment [4] were 33 µM, 510 µM and 130 µM, respectively.
Consider `O=C(O)C(=O)Nc1sc2c(c1C(=O)O)CCNC2`, for which the Ki is 59 µM in experiment [1]; 560 µM in experiment [2]; 0.29 µM in experiment [5]; over 2000 µM in experiment [3]; 1100 µM in experiment [4].
Consider `O=C(O)COc1c(C(=O)O)sc(-c2ccccc2)c1Br`, for which, in experiment [6], the Ki is over 500 µM.
On the same count and under the same terms, the result for `CC1(C)CC(Nc2cccc(-c3sc(C(=O)O)c(OCC(=O)O)c3Br)c2)CC(C)(C)C1` reads over 1000 µM.
Regarding `O=C(O)C(=O)Nc1ccsc1C(=O)O`, the Ki in experiment [7] is over 2000 µM; in experiment [1] it was 260 µM; in experiment [5], 58 µM; in experiment [4] it was 360 µM.
As to `O=C(O)C(=O)Nc1ccc(I)cc1C(=O)O`, the inhibition constant Ki was found to be 49 µM in experiment [1]; 17 µM in experiment [2]; 14 µM in experiment [5]; 80 µM in experiment [3]; 33 µM in experiment [4].
Turning to `O=C(O)C(=O)Nc1ccc2cc[nH]c2c1C(=O)O`, the Ki in experiment [7] came out at 180 µM; in experiment [1], 20 µM; in experiment [6], 450 µM; in experiment [2], 3.6 µM; in experiment [5], 8 µM; in experiment [3], 28 µM. In experiment [4], this compound yielded an inhibition constant Ki of 33 µM.
Take `O=C(O)C(=O)Nc1cc2[nH]ccc2cc1C(=O)O`: the Ki in experiment [7] came out at 800 µM; in experiment [1], 56 µM; in experiment [6] it was 550 µM; in experiment [2], 6 µM; in experiment [5], 14 µM; in experiment [3] it was 16 µM. Besides, the Ki in experiment [4] was 66 µM.
As to `O=C(O)C(=O)Nc1sccc1C(=O)O`, the Ki is 210 µM in experiment [1], 62 µM in experiment [5] and 740 µM in experiment [4].
Regarding `O=C(O)C(=O)Nc1cc2ccccc2cc1C(O)O`, the Ki in experiment [7] came to 190 µM; in experiment [1], 37 µM; in experiment [6], 68 µM; in experiment [2], 14 µM; in experiment [5] it was 9.9 µM; in experiment [3], 94 µM. This compound also showed a Ki in experiment [4] of 45 µM.
Take `O=C(O)C(=O)Nc1sc2c(c1C(=O)O)CCO[C@H]2COC1=NS(=O)(=O)c2ccccc21`: the Ki in experiment [7] is over 500 µM; in experiment [1], 489 µM; in experiment [6], 176 µM; in experiment [2] it was 21 µM; in experiment [5], 0.6 µM; in experiment [3], 289 µM. Moreover, the inhibitory constant (Ki) in experiment [4] was over 500 µM; in experiment [8] it was 1.1 µM.
In the case of `O=C(O)COc1c(C(=O)O)sc2c1sc1ccccc12`, the inhibition constant (Ki) in experiment [1] was over 1250 µM; in experiment [6], 1100 µM; in experiment [5] it was 9.2 µM; in experiment [8], 4.1 µM.
